Measurements: PubChem BioAssay AID1963975 (Molecular Pharmacology Branch, DTP, NCI, 2024)
pIC50: −log10 of the molar value.

System: 624824-186-R-J2-PDC multicell spheroids, viability
Experiment: Anticancer human tumor 624824-186-R-J2-PDC patient-derived colon adenocarcinoma cell line growth inhibition [PI3K]
Conditions: for pIC50: curve of first compound; for viability, T/C: stronger effect = lower value
Summary of the method: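 High-throughput combination screen: PI3K inhibitors crossed with targeted small molecules on complex spheroids of tumor cells, HUVEC and MSCs at 37 degrees C, 5% CO2. Top concentration was at or near clinical Cmax (otherwise 10 microM), with half-log decrements.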
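Note: spheroids exposed to agents for 7 days before viability read.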
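Throughout, for viability, T/C: 100% = DMSO vehicle treated spheroids.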

In the case of CCN1CCN(Cc2ccc(Nc3ncc(F)c(-c4cc(F)c5nc(C)n(C(C)C)c5c4)n3)nc2)CC1 + CC(Nc1ccc2c(c1)OCCn1cc(N3C(=O)OCC3C(F)F)nc1-2)C(N)=O, the pIC50 (second compound 0.00316 µM) was < 6.00, the pIC50 (second compound 0.01 µM) was < 6.00 and the pIC50 (second compound 0.0316 µM) was < 6.00. For the same compound, the pIC50 (second compound 0.1 µM) was < 6.00, the pIC50 (second compound 0.316 µM) was < 6.00 and the pIC50 (second compound 1 µM) was < 6.00. The viability, T/C (second compound 0.00316 µM, first compound 0.00316 µM) was 92.9%, the viability, T/C (second compound 0.00316 µM, first compound 0.01 µM) was 87.8% and the viability, T/C (second compound 0.00316 µM, first compound 0.0316 µM) was 80.5%. The viability, T/C (second compound 0.00316 µM, first compound 0.1 µM) was 105%, the viability, T/C (second compound 0.00316 µM, first compound 0.316 µM) was 91.5% and the viability, T/C (second compound 0.00316 µM, first compound 1 µM) was 118%. It also gave a viability, T/C (second compound 0.01 µM, first compound 0.00316 µM) of 97.7%, a viability, T/C (second compound 0.01 µM, first compound 0.01 µM) of 98.2% and a viability, T/C (second compound 0.01 µM, first compound 0.0316 µM) of 114%. It also gave a viability, T/C (second compound 0.01 µM, first compound 0.1 µM) of 89.2%, a viability, T/C (second compound 0.01 µM, first compound 0.316 µM) of 92.1% and a viability, T/C (second compound 0.01 µM, first compound 1 µM) of 106%. The viability, T/C (second compound 0.0316 µM, first compound 0.00316 µM) was 77.1%, the viability, T/C (second compound 0.0316 µM, first compound 0.01 µM) was 86.4% and the viability, T/C (second compound 0.0316 µM, first compound 0.0316 µM) was 83.5%. It also gave a viability, T/C (second compound 0.0316 µM, first compound 0.1 µM) of 76.3%, a viability, T/C (second compound 0.0316 µM, first compound 0.316 µM) of 97.8% and a viability, T/C (second compound 0.0316 µM, first compound 1 µM) of 105%. The viability, T/C (second compound 0.1 µM, first compound 0.00316 µM) was 93.4%, the viability, T/C (second compound 0.1 µM, first compound 0.01 µM) was 77.6% and the viability, T/C (second compound 0.1 µM, first compound 0.0316 µM) was 86.4%. It also gave a viability, T/C (second compound 0.1 µM, first compound 0.1 µM) of 77.3%, a viability, T/C (second compound 0.1 µM, first compound 0.316 µM) of 89.4% and a viability, T/C (second compound 0.1 µM, first compound 1 µM) of 119%. For the same compound, the viability, T/C (second compound 0.316 µM, first compound 0.00316 µM) was 102%, the viability, T/C (second compound 0.316 µM, first compound 0.01 µM) was 89% and the viability, T/C (second compound 0.316 µM, first compound 0.0316 µM) was 87.2%. For the same compound, the viability, T/C (second compound 0.316 µM, first compound 0.1 µM) was 92.4%, the viability, T/C (second compound 0.316 µM, first compound 0.316 µM) was 90.1% and the viability, T/C (second compound 0.316 µM, first compound 1 µM) was 105%. For the same compound, the viability, T/C (second compound 1 µM, first compound 0.00316 µM) was 85.6%, the viability, T/C (second compound 1 µM, first compound 0.01 µM) was 83.7% and the viability, T/C (second compound 1 µM, first compound 0.0316 µM) was 90.9%. It also gave a viability, T/C (second compound 1 µM, first compound 0.1 µM) of 85.8%, a viability, T/C (second compound 1 µM, first compound 0.316 µM) of 87.2% and a viability, T/C (second compound 1 µM, first compound 1 µM) of 96.3%.
